Among the data in US9751858B2, “3-heteroaroylamino-propionic acid derivatives and their use as pharmaceuticals” (SANOFI, priority 2011, dated 2017) are IC50 values, retold here.

The assay deals with T1, Recombinant human cathepsin A (Homo sapiens, UniProt P10619).
T1 construct: Recombinant human cathepsin A (residues 29-480, with a C-terminal 10-His tag); 10-His (C); purchased R&D Systems 1049-SE
T1 sequence (P10619 29-326 limits assumed): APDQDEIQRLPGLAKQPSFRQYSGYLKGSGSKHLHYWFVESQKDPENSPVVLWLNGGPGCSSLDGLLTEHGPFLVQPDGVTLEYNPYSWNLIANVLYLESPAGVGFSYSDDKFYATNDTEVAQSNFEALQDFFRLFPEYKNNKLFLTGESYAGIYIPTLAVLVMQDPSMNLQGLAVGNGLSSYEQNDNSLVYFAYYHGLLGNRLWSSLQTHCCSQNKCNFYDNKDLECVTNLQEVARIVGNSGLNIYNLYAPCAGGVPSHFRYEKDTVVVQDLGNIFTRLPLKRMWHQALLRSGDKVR
T1 sequence (P10619 327-480 limits assumed): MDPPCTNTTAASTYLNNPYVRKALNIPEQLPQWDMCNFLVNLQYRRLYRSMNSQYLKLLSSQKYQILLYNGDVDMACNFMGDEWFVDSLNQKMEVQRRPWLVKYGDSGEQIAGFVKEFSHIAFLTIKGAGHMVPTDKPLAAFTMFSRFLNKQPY
Kind of assay: Cathepsin A inhibitory activity. Type of assay: biochemical. To be noted: activated recombinant human cathepsin A 833 ng/ml, Bodipy FL-labeled bradykinin 2 μM, pH 5.5, 15 min room temperature. In short, it runs like this: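 Cathepsin A activated by cathepsin L (15 min, 37 °C, pH 6.0), then preincubated 15 min at room temperature with compound in 25 mM MES pH 5.5, 5 mM DTT. Bodipy FL-bradykinin cleavage ran 15 min at room temperature; substrate and product separated by microfluidic capillary electrophoresis, turnover from peak areas.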

`O=C(O)C[C@H](NC(=O)c1noc(-c2cccc(F)c2F)n1)c1ccccc1` [Example 20, (S)-3-{[5-(2,3-Difluoro-phenyl)-[1,2,4]oxadiazole-3-carbonyl]-amino}-3-phenyl-propionic acid]: the IC50 came out at 7350 nM.

In the case of `Cc1ccccc1[C@H](CC(=O)O)NC(=O)c1c[nH]c(-c2ccccc2)n1` [Example 1, (S)-3-[(2-Phenyl-1H-imidazole-4-carbonyl)-amino]-3-o-tolyl-propionic acid], the IC50 amounted to 213 nM.

Consider `CC(C)c1oc(-c2ccccc2)nc1C(=O)N[C@@H](CC(=O)O)c1ccccc1` [Example 22, (S)-3-[(5-Isopropyl-2-phenyl-oxazole-4-carbonyl)-amino]-3-phenyl-propionic acid], for which the IC50 was 1040 nM.

As to `CCc1nc(C(=O)N[C@@H](CC(=O)O)c2ccccc2C)nn1-c1ccccc1Cl` [Example 70, (S)-3-{[1-(2-Chloro-phenyl)-5-ethyl-1H-[1,2,4]triazole-3-carbonyl]-amino}-3-o-tolyl-propionic acid], the IC50 amounted to 166 nM.

On to `Cc1ccc([C@H](CC(=O)O)NC(=O)c2nc(C3CC3)n(-c3ccccc3Cl)n2)cc1` [Example 83, (S)-3-{[1-(2-Chloro-phenyl)-5-cyclopropyl-1H-[1,2,4]triazole-3-carbonyl]-amino}-3-p-tolyl-propionic acid], for which the IC50 was more than 10000 nM.

`CCCS(=O)(=O)Nc1cn(C)nc1C(=O)N[C@@H](CC(=O)O)c1ccccc1C` [Example 64, (S)-3-{[1-Methyl-4-(propane-1-sulfonylamino)-1H-pyrazole-3-carbonyl]-amino}-3-o-tolyl-propionic acid]: the IC50 was more than 10000 nM.

For the compound `COc1cccc([C@H](CC(=O)O)NC(=O)c2nc(-c3ccccc3)n(-c3ccccc3)n2)c1` [Example 102, (S)-3-[(1,5-Diphenyl-1H-[1,2,4]triazole-3-carbonyl)-amino]-3-(3-methoxy-phenyl)-propionic acid], the IC50 stood at 440 nM.

In the case of `Cc1ccccc1[C@H](CC(=O)O)NC(=O)c1cc(-c2ccccc2)n(Cc2ccccc2)n1` [Example 98, (S)-3-[(1-Benzyl-5-phenyl-1H-pyrazole-3-carbonyl)-amino]-3-o-tolyl-propionic acid], the IC50 worked out at 75 nM.

As to `O=C(O)C[C@H](NC(=O)c1nc(-c2ccccc2)n(-c2ccccc2)n1)c1ccc(F)cc1` [Example 91, (S)-3-[(1,5-Diphenyl-1H-[1,2,4]triazole-3-carbonyl)-amino]-3-(4-fluoro-phenyl)-propionic acid], the IC50 worked out at 517 nM.

Take `Cc1ccccc1[C@H](CC(=O)O)NC(=O)c1nn(C)cc1NS(=O)(=O)CCc1ccccc1` [Example 121, (S)-3-{[1-Methyl-4-(2-phenyl-ethanesulfonylamino)-1H-pyrazole-3-carbonyl]-amino}-3-o-tolyl-propionic acid]: the IC50 is more than 10000 nM.

With `Cc1ccccc1[C@H](CC(=O)O)NC(=O)c1nn(C)cc1NS(=O)(=O)CC(C)(C)C` [Example 95, (S)-3-{[4-(2,2-Dimethyl-propane-1-sulfonylamino)-1-methyl-1H-pyrazole-3-carbonyl]-amino}-3-o-tolyl-propionic acid], the IC50 is more than 10000 nM.

Take `Cc1oc(-c2ccccc2F)nc1C(=O)N[C@@](C)(CC(=O)O)c1ccccc1` [Example 30, (S)-3-{[2-(2-Fluoro-phenyl)-5-methyl-oxazole-4-carbonyl]-amino}-3-phenyl-butyric acid]: the IC50 was more than 10000 nM.

Turning to `O=C(O)C[C@H](NC(=O)c1nc(-c2ccccc2)n(-c2ccccc2)n1)c1ccccc1F` [Example 90, (S)-3-[(1,5-Diphenyl-1H-[1,2,4]triazole-3-carbonyl)-amino]-3-(2-fluoro-phenyl)-propionic acid], the IC50 was 353 nM.

With `Cc1ccccc1[C@H](CC(=O)O)NC(=O)c1nc(-c2ccccc2)oc1C(F)(F)F` [Example 77, (S)-3-[(2-Phenyl-5-trifluoromethyl-oxazole-4-carbonyl)-amino]-3-o-tolyl-propionic acid], the IC50 was 1910 nM.

For orientation: IC50 means the concentration that inhibits the measured activity by half.
